Type in all cases: in vivo
For test [1], the system named is histamine. Nature of the test: rat dermal vascular permeability test (mediator release model), histamine challenge. To be noted: 100 mg/kg, histamine 20 ug/ml intradermal. The procedure:
The furanone compounds listed in Tables 1A, 1B and 2 were used for anti-allergy treatment in the rat active anaphylaxis model and/or the rat dermal vascular permeability test (mediator release model). The results are given as the percent inhibition from the control.
In the rat dermal vascular permeability test, groups of ten male rats are intraperitoneally or perorally administered either the test compound, at a dosage of 100 mg/kg of rat weight as a 0.85% solution in saline, or the positive reference standard cyproheptadine (1 mg/kg) one hour prior to an intravenous injection of 1 ml of a 0.5% solution of Evan's blue dye into naive animals. Ten minutes later the animals are challenged by intradermally injecting 0.1 ml of a solution of either serotonin (1 ug/ml), histamine (20 ug/ml) or bradykinin (10 ug/ml) into separate sites on the back. Five minutes following challenge the animals are killed, the skin retracted, and the mean diameter of the blue wheal and flare reactions are determined. The percent inhibition of the wheal reaction is calculated as the difference in diameter between the saline control and drug treated groups divided by the control diameter times 100. Statistical analysis of the data is done using the poolt program.

The next test has as its system bradykinin. Nature of the test: rat dermal vascular permeability test (mediator release model), bradykinin challenge. To be noted: 100 mg/kg.
The next test concerns serotonin. Nature of the test: rat dermal vascular permeability test (mediator release model), serotonin challenge. To be noted: 100 mg/kg.
For test [2], the system named is histamine. Nature of the test: rat dermal vascular permeability test (mediator release model), histamine challenge. Particulars: topical, 100 mg/kg.
The test system of a further test is edema. Nature of the test: rat active anaphylaxis model (paw edema after bovine serum albumin challenge). To be noted: 100 mg/kg intraperitoneally; for Active Anaphylaxis % Inhibition: 1 h before challenge, paw volume 90 min post challenge. The protocol: In the rat active anaphylaxis model, groups consisting of 15-20 male rats are intraperitoneally sensitized on day zero with 500 ug of bovine serum albumin-absorbed alum admixed with 2×10^10 killed Bordatella pertussis vaccine organisms. […] The paw volume is measured using a mercury plethysmometer prior to drug administration and 90 minutes post antigenic challenge. The percent inhibition of edema is calculated as the difference in volume between the control and drug treated groups divided by the control volume times 100. The positive control drug, theophylline (90 mg/kg, po) is included in each assay. Statistical analysis of the data is done using the poolt program.

[3] abbreviates: peroral, serotonin 1 ug/ml intradermal.
Setting [4] is: intraperitoneal administration, bradykinin 10 ug/ml intradermal.
Where [5] appears, read: intraperitoneal administration, serotonin 1 ug/ml intradermal.

`Cc1ccccc1NC(=O)C1=C(Nc2ccccc2C)OCC1=O` [NHC6 H4 CH3 2 H H C6 H4 CH3 2]: the “% Inhibition of Mediator Release, Histamine” value (“% Inhibition … Histamine” for short) in the test with histamine [1] (peroral) came to 0%. The “% Inhibition of Mediator Release, Bradykinin” value (shortened to “% Inhibition … Bradykinin”) in the test on bradykinin (topical) is reported as 7%. Also, the “% Inhibition of Mediator Release, Serotonin” value (“% Inhibition … Serotonin” for short) in the test with serotonin (setting [3]) was found to be 9%.

As for `COc1ccc(NC(=O)C2=C(Nc3ccc(OC)cc3)OCC2=O)cc1` [NH6 H4 OCH3 4 H H C6 H4 OCH3 4], in the test on bradykinin (topical), the “% Inhibition … Bradykinin” value was determined as 39%. In addition, the “% Inhibition … Histamine” value with histamine [2] is on record as 8%. Also, the “% Inhibition … Serotonin” value with serotonin (topical) is reported as 13%.

Regarding `O=C(O)C1=C(N[C@@H]2C[C@H]2c2ccc(Cl)cc2)OCC1=O` (relative stereo), the “% Inhibition … Histamine” value with histamine [1] (peroral) is given as 56%. Besides, the “% Inhibition … Bradykinin” value with bradykinin (topical) is recorded as 71%. The “Active Anaphylaxis % Inhibition” value with edema came out at 6%. Besides, the “% Inhibition … Serotonin” value with serotonin (setting [3]) is given as 54%.

With `CCOC(=O)C1=C(O)COC1=Nc1ccccc1OC` [K C6 H4 OCH3 --2 C2 H5], the “Active Anaphylaxis % Inhibition” value in the test with edema is listed as 58%.

Consider `COc1ccccc1NC(=O)C1=C(Nc2ccccc2OC)OCC1=O` [NHC6 H4 OCH3 2 H H C6 H4 OCH3 2], for which the “% Inhibition … Histamine” value in the test on histamine [1] (peroral) amounted to 1%. In the test on bradykinin (topical), the “% Inhibition … Bradykinin” value was 39%. Moreover, the “% Inhibition … Serotonin” value in the test on serotonin (setting [3]) worked out at 18%.

As to `CCOC(=O)C1=C(Nc2ccccc2)OC(C)(C)C1=O` [OC2 H5 CH3 CH3 C6 H5, ethyl 4,5-dihydro-5,5-dimethyl-4-oxo-2-(phenylamino)-3-furancarboxylate], in the test on edema, the “Active Anaphylaxis % Inhibition” value came to 16%.

For the compound `O=C(O)C1=C(Nc2cccc([N+](=O)[O-])c2)OCC1=O` [OH H H C6 H4 NO2 --3], the “% Inhibition … Histamine” value in the test on histamine [1] (peroral) is reported as 16%. The “% Inhibition … Bradykinin” value in the test on bradykinin (topical) is on record as 48%. The “Active Anaphylaxis % Inhibition (footnote 1: edema increased)” value in the test with edema (edema increased) came to 39%. Further, the “% Inhibition … Serotonin” value in the test on serotonin (setting [3]) is listed as 18%.

`CC1OC(Nc2ccccc2)=C(C(=O)O)C1=O` (stereo not drawn) [OH H CH3 C6 H5]: the “% Inhibition … Histamine” value in the test on histamine [1] (intraperitoneal administration) turned out to be 40%. Besides, the “% Inhibition … Bradykinin” value with bradykinin (setting [4]) is 46%. The “Active Anaphylaxis % Inhibition” value in the test with edema came out at 60%. Also, the “% Inhibition … Serotonin” value in the test with serotonin (setting [5]) worked out at 37%.

As for `CCOC(=O)C1=C(Nc2ccc(Cl)cc2)OCC1=O` [OC2 H5 H H C6 H4 Cl--4], the “% Inhibition … Histamine” value with histamine [1] (peroral) is recorded as 3.3%. The “% Inhibition … Bradykinin” value in the test with bradykinin (topical) was found to be 9.5%. In addition, in the test on serotonin (setting [3]), the “% Inhibition … Serotonin” value was 6.6%.

Regarding `CCOC(=O)C1=C(Nc2ccc(C(=O)OCC)cc2)OCC1=O` [OC2 H5 H H C6 H4 CO2 C2 H5 --4, ethyl 2-[[4-(ethoxycarbonyl)phenyl]-amino]-4,5-dihydro-4-oxo-3-furancarboxylate], in the test on histamine [1] (peroral), the “% Inhibition … Histamine” value was determined as 21%. In addition, the “% Inhibition … Bradykinin” value in the test on bradykinin (topical) amounted to 21%. In addition, the “% Inhibition … Serotonin” value in the test on serotonin (setting [3]) worked out at 18%.

On to `CCOC(=O)C1=C(N[C@@H]2C[C@H]2c2ccc(Cl)cc2)OCC1=O` (relative stereo), for which the “% Inhibition … Histamine” value in the test on histamine [1] (peroral) is 60%. Besides, the “% Inhibition … Bradykinin” value in the test with bradykinin (topical) is given as 76%. Moreover, in the test on serotonin (setting [3]), the “% Inhibition … Serotonin” value worked out at 51%.

As for `CCOC(=O)C1=C(O)COC1=Nc1cccc([N+](=O)[O-])c1` [K C6 H4 NO2 --3 C2 H5], the “% Inhibition … Histamine” value in the test with histamine [1] (intraperitoneal administration) worked out at 49%. Moreover, the “% Inhibition … Bradykinin” value in the test on bradykinin (setting [4]) is reported as 67%. Moreover, in the test on edema, the “Active Anaphylaxis % Inhibition” value stood at 37%. Further, the “% Inhibition … Serotonin” value in the test on serotonin (setting [5]) stood at 45%.

As for `CCOC(=O)C1=C(O)COC1=Nc1ccccc1` [K C6 H5 C2 H5, Potassium 2,5-dihydro-3-ethoxycarbonyl-2-(phenylimino)-4-furanyloxide], in the test on histamine [1] (intraperitoneal administration), the “% Inhibition … Histamine” value amounted to 31%. Further, the “% Inhibition … Bradykinin” value in the test on bradykinin (setting [4]) is given as 51%. In addition, in the test on edema, the “Active Anaphylaxis % Inhibition” value was 49%. For the same compound, the “% Inhibition … Serotonin” value in the test on serotonin (setting [5]) is on record as 42%.

As to `CCOC(=O)C1=C(N[C@@H]2C[C@H]2c2ccccc2)OCC1=O` (relative stereo), the “% Inhibition … Histamine” value with histamine [1] (peroral) was 35%. Also, the “% Inhibition … Bradykinin” value with bradykinin (topical) came to 59%. In the test with serotonin (setting [3]), the “% Inhibition … Serotonin” value is given as 57%.

Turning to `CCOC(=O)C1=C(O)COC1=Nc1ccc(C(C)=O)cc1` [K C6 H4 COCH3 --4 C2 H5], in the test on histamine [1] (intraperitoneal administration), the “% Inhibition … Histamine” value is recorded as 88%. In addition, the “% Inhibition … Bradykinin” value with bradykinin (setting [4]) was 86%. In the test on edema, the “Active Anaphylaxis % Inhibition” value is recorded as 56%. The “% Inhibition … Serotonin” value in the test with serotonin (setting [5]) is reported as 79%.

For `CCOC(=O)C1=C(Nc2cccc(C(F)(F)F)c2)OCC1=O` [OC2 H5 H H C6 H4 CF3 --3], the “% Inhibition … Histamine” value in the test on histamine [1] (peroral) was found to be 4.1%. The “% Inhibition … Bradykinin” value with bradykinin (topical) is on record as 40%. Moreover, in the test on serotonin (setting [3]), the “% Inhibition … Serotonin” value is 9.7%.

Consider `CC1(C)OC(Nc2ccccc2)=C(C(=O)O)C1=O` [OH CH3 CH3 C6 H5], for which the “Active Anaphylaxis % Inhibition” value in the test with edema is reported as 44%.

Turning to `O=C(O)C1=C(Nc2ccc(C(=O)O)cc2)OCC1=O` [OH H H C6 H4 CO2 H--4, 2-[(4-Carboxyphenyl)amino]-4,5-dihydro-4-oxo-3-furancarboxylic Acid], the “% Inhibition … Histamine” value in the test on histamine [1] (peroral) was 64%. In addition, the “% Inhibition … Bradykinin” value in the test with bradykinin (topical) came out at 64%. In addition, in the test with edema, the “Active Anaphylaxis % Inhibition” value amounted to 52%. In addition, the “% Inhibition … Serotonin” value in the test with serotonin (setting [3]) is given as 63%.

As to `CCOC(=O)C1=C(NC)OCC1=O` [OC2 H5 H H CH3], the “% Inhibition … Histamine” value in the test on histamine [1] (intraperitoneal administration) turned out to be 50%. In the test on bradykinin (setting [4]), the “% Inhibition … Bradykinin” value worked out at 25%. The “% Inhibition … Serotonin” value in the test on serotonin (setting [5]) is listed as 38%.

As to `O=C(O)C1=C(Nc2cccc(C(F)(F)F)c2)OCC1=O` [OH H H C6 H4 CF3 --3], in the test with histamine [1] (peroral), the “% Inhibition … Histamine” value worked out at 26%. Also, the “% Inhibition … Bradykinin” value in the test with bradykinin (topical) is recorded as 54%. In addition, in the test on edema, the “Active Anaphylaxis % Inhibition” value was determined as 45%. Moreover, in the test with serotonin (setting [3]), the “% Inhibition … Serotonin” value is given as 40%.

For the compound `Cc1ccc([C@@H]2C[C@H]2NC2=C(C(=O)O)C(=O)CO2)cc1` (relative stereo), the “% Inhibition … Histamine” value in the test on histamine [1] (peroral) was 100%. Moreover, the “% Inhibition … Bradykinin” value in the test on bradykinin (topical) was 100%. The “Active Anaphylaxis % Inhibition” value in the test with edema turned out to be 45%. In the test on serotonin (setting [3]), the “% Inhibition … Serotonin” value was found to be 100%.

As to `O=C1COC(Nc2ccc(Cl)cc2)=C1C(=O)Nc1ccc(Cl)cc1` [NHC6 H4 Cl4 H H C6 H4 Cl4], the “% Inhibition … Histamine” value in the test with histamine [1] (peroral) worked out at 15%. Moreover, the “% Inhibition … Bradykinin” value in the test with bradykinin (topical) was found to be 44%. Also, in the test on serotonin (setting [3]), the “% Inhibition … Serotonin” value came to 14%.

Turning to `COc1ccccc1NC1=C(C(=O)O)C(=O)CO1` [OH H H C6 H4 OCH3 --2], in the test with histamine [1] (peroral), the “% Inhibition … Histamine” value is on record as 27%. Also, the “% Inhibition … Bradykinin” value in the test on bradykinin (topical) turned out to be 38%. Also, in the test on edema, the “Active Anaphylaxis % Inhibition” value is 45%. Besides, the “% Inhibition … Serotonin” value in the test on serotonin (setting [3]) was determined as 30%.

In the case of `O=C1COC(Nc2ccccc2)=C1C(=O)Nc1ccccc1` [NHC6 H5 H H C6 H5, 4,5-Dihydro-4-oxo-N-phenyl-2-(phenylamino)-3-furancarboxamide], the “Active Anaphylaxis % Inhibition” value in the test with edema was found to be 46%.

Take `CCOC(=O)C1=C(O)COC1=Nc1cccc(C)c1` [K C6 H4 CH3 --3 C2 H5]: in the test with histamine [1] (intraperitoneal administration), the “% Inhibition … Histamine” value stood at 71%. Besides, the “% Inhibition … Bradykinin” value in the test on bradykinin (setting [4]) came out at 70%. Further, in the test with serotonin (setting [5]), the “% Inhibition … Serotonin” value was 75%.

Turning to `O=C(O)C1=C(N[C@@H]2C[C@H]2c2ccccc2)OCC1=O` (relative stereo), the “Active Anaphylaxis % Inhibition” value with edema worked out at 22%.

Consider `CCOC(=O)C1=C(O)COC1=Nc1ccc(Br)cc1` [K C6 H4 Br--4 C2 H5], for which the “% Inhibition … Histamine” value with histamine [1] (intraperitoneal administration) was 65%. For the same compound, the “% Inhibition … Bradykinin” value in the test with bradykinin (setting [4]) came out at 69%. For the same compound, the “Active Anaphylaxis % Inhibition” value with edema stood at 38%. Besides, the “% Inhibition … Serotonin” value with serotonin (setting [5]) was 46%.

With `O=C(O)C1=C(Nc2ccc(Br)cc2)OCC1=O` [OH H H C6 H4 Br--4], the “% Inhibition … Histamine” value with histamine [1] (peroral) is 45%. Also, the “% Inhibition … Bradykinin” value in the test with bradykinin (topical) was 68%. Moreover, the “Active Anaphylaxis % Inhibition” value in the test with edema is listed as 27%. Also, in the test with serotonin (setting [3]), the “% Inhibition … Serotonin” value turned out to be 39%.

Take `O=C([O-])C1=C(Nc2ccccc2)OCC1=O.[Na+]` [O^- Na^+ H H C6 H5, 4,5-dihydro-4-oxo-2-phenylamino-3-furancarboxylic acid sodium salt]: the “Active Anaphylaxis % Inhibition” value with edema amounted to 17%.

The values above are taken from patent publication US4845122A, “Anti-allergy treatment using 2-(substituted amino)-4,5-dihydro-4-oxo-3-furancarboxylic acids and derivatives thereof” (priority 1986, dated 1989).
